Measured values published in ChEMBL document CHEMBL1201862, “PubChem BioAssay data set” (2004).
The source made the active and inactive calls.

Experiments:
[1] = target: T1, Protein skinhead-1 (Caenorhabditis elegans, UniProt P34707); type: functional
T1 sequence (P34707 whole entry): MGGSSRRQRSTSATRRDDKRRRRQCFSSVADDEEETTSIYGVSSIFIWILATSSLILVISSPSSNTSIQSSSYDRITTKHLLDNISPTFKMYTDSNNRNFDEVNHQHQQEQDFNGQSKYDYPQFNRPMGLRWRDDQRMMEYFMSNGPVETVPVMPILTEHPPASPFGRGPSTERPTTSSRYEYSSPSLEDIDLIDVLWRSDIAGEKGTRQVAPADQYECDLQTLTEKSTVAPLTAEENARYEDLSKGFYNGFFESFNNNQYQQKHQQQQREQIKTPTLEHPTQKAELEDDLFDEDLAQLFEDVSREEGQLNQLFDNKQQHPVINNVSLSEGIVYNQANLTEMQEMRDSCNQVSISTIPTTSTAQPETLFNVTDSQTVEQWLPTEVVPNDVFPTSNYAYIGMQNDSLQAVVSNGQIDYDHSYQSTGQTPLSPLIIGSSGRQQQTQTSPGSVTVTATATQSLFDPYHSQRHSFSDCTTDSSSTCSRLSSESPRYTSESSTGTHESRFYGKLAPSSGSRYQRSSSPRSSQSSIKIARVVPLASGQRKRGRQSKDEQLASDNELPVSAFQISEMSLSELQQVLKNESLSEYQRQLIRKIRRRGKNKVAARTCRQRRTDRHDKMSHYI

[2] = target: FAD-linked sulfhydryl oxidase ALR (Homo sapiens, UniProt P55789); assay: ALR-catalysed DTT oxidation blockers – biochemical, H2O2 detection, luminescence, cherry-pick, dose response (AID 493248)
FAD-linked sulfhydryl oxidase ALR, sequence (P55789 whole entry): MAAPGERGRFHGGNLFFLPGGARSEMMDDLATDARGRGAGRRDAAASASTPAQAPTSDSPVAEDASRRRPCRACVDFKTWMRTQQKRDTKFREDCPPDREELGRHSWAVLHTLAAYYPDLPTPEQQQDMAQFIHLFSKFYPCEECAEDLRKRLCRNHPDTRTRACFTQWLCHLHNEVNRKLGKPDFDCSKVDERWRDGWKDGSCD

[3] = target: T2, Short transient receptor potential channel 4 (Mus musculus, UniProt Q9QUQ5); assay: calcium entry via TRPC4 opening agents – cell-based, HEK293 TRPC4/mu-opioid, Fluo-4 calcium, dose response (AID 434937); type: functional
T2 sequence (Q9QUQ5 whole entry): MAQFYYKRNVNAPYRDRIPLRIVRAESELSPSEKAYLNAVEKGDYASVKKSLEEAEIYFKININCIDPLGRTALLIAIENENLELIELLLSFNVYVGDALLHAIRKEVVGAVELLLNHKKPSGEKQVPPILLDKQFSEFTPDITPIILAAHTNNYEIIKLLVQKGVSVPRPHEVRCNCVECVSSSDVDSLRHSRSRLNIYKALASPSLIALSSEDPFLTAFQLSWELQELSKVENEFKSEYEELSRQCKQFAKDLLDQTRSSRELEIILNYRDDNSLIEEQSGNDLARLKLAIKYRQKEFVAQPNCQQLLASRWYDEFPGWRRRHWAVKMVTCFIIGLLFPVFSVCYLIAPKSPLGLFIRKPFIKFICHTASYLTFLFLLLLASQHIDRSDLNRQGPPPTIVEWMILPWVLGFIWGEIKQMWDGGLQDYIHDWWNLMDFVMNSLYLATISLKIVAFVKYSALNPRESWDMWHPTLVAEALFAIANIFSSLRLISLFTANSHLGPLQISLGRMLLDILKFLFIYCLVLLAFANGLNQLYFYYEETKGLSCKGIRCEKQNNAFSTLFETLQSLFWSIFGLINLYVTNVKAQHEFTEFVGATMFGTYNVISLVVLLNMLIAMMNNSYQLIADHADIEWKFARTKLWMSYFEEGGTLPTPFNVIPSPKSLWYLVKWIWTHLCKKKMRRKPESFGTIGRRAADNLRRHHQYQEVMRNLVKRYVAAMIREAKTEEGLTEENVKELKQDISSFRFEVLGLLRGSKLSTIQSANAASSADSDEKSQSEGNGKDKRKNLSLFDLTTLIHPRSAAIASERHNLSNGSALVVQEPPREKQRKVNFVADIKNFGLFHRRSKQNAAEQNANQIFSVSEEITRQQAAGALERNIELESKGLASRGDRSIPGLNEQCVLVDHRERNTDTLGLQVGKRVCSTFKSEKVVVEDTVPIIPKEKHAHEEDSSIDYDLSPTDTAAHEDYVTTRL

[4] = target: T3, Rac GTPase-activating protein 1 (Homo sapiens, UniProt Q9H0H5); assay: blockers of MgcRacGAP-driven Rac1 GTP hydrolysis – biochemical, ADP Hunter fluorescence, primary and confirmatory, confirmation (AID 624330); type: functional
T3 sequence (Q9H0H5 whole entry): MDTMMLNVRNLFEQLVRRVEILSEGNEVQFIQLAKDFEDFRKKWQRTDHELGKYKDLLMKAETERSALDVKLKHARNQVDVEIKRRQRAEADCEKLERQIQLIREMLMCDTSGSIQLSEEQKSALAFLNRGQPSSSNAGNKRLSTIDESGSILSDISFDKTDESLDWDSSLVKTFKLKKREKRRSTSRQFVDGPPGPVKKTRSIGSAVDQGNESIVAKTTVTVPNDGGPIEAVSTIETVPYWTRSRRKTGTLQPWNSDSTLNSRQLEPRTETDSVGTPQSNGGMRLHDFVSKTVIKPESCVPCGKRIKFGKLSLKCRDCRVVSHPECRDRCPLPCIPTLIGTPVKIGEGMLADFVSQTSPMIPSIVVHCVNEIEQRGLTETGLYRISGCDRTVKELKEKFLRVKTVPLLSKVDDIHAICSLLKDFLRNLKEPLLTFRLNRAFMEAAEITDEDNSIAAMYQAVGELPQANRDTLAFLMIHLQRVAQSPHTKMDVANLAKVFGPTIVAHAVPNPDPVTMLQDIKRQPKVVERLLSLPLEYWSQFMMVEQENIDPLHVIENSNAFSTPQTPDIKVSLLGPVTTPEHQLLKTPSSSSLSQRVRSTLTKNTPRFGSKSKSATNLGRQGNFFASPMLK

[5] = luciferase reporter signal suppression in cells – H4 neuroglioma cells, luminescence, dose response (AID 1990); type: functional, cell-based
[6] = Luminescence Cell-Based Dose Response HTS to Identify Inhibitors of 5'UTR Stem-Loop Driven Prion Protein mRNA Translation in H4 Neuroglioblastoma Cells. [Related pubchem assays: 1827 (Project Summary), 1813 (Primary HTS)]; type: functional
[7] = alpha-synuclein stem-loop luciferase translation blockers – H4 neuroglioma cells, luminescence, confirmation (AID 1988); type: functional, cell-based
[8] = Luminescence Cell-Based Dose Retest to Confirm Inhibitors of Cancer Stem Cells. [Related pubchem assays (depositor defined):AID2717, AID2721]; type: functional; settings: Homo sapiens
[9] = test system: INS1; assay: INS-1E survival protection against cytokine death – cell-based, luminescence, retest, dose response (AID 449756); type: functional; settings: Rattus norvegicus;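 note: cell death triggered by IL-1 beta plus TNF-alpha plus IFN-gamma mixture; protective hits raise ATP signal compared with cytokine alone wells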
[10] = reduction of Shn3 3'UTR-driven luciferase in osteoblasts – cell-based, Clone20 osteoblasts, firefly luciferase, cherry-picked, dose response (AID 624132); type: functional;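 note: firefly luciferase luminescence from reporter carrying the Shn3 3'UTR in osteoblasts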
[11] = loss of viability in HepG2 cells – cell-based, CellTiter-Glo, cherry-picked, cytotoxicity control for Shn3 inhibitor project, dose response (AID 624134); type: functional
[12] = non-specific 3'UTR reporter inhibition in Clone20-Shn3RL – cell-based, Renilla luciferase, cherry-picked, counter-screen for Shn3 inhibitor project, dose response (AID 624133); type: functional
[13] = target: Cytochrome P450 2C19 (Homo sapiens, UniProt P33261); assay: Cytochrome panel assay with activity outcomes. Panel member name: p450-cyp2c19 Compounds with AC50 equal or less than 10 uM are considered active; type: functional; settings: read-out: AC50
Cytochrome P450 2C19, sequence (P33261 whole entry): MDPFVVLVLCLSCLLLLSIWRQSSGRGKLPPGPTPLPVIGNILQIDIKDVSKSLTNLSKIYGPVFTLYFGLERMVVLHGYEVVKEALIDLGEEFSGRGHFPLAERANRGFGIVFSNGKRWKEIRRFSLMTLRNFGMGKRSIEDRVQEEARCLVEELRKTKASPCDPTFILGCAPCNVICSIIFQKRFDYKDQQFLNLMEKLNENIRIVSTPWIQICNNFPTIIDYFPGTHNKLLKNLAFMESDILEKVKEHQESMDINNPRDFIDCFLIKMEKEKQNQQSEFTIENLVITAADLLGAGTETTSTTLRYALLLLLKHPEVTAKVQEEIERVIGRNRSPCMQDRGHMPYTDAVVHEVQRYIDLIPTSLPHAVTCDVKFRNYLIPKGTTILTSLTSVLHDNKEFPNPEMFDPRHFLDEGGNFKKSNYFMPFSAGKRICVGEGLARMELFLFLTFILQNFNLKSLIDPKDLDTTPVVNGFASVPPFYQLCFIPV

[14] = target: Cytochrome P450 2D6 (Homo sapiens, UniProt P10635);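 note: CYP2D6 member of a cytochrome P450 panel assay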
Cytochrome P450 2D6, sequence (P10635 whole entry): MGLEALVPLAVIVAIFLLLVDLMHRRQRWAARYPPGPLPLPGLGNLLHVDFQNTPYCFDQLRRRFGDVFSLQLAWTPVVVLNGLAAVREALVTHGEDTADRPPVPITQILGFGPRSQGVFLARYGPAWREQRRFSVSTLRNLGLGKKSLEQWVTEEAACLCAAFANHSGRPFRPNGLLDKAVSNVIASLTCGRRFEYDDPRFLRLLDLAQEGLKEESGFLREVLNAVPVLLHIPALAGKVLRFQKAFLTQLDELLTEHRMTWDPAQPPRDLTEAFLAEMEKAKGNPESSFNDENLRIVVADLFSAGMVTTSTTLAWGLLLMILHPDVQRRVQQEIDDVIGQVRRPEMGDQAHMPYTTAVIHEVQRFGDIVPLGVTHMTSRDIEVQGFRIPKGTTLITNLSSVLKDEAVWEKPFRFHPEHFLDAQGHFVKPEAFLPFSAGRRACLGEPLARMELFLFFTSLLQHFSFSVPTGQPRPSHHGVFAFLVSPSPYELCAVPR

[15] = target: Cytochrome P450 2C9 (Homo sapiens, UniProt P11712)
Cytochrome P450 2C9, sequence (P11712 whole entry): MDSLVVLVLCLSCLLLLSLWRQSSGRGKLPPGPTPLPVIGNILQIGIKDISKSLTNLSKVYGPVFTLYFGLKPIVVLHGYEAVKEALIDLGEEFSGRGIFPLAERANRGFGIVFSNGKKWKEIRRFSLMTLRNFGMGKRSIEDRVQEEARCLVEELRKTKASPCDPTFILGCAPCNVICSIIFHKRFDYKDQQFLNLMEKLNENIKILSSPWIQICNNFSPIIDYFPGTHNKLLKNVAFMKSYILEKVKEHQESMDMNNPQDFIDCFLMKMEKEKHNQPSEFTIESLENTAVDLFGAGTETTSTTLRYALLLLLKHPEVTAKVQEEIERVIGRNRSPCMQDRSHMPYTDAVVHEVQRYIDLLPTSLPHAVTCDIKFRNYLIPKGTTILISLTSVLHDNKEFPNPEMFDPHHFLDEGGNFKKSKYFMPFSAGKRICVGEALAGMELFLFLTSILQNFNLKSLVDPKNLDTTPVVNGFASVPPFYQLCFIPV

[16] = test system: H9c2; assay: cells; type: functional, cell-based; settings: Rattus norvegicus, H9c2, Myocardium;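 note: confirmatory concentration-response retest of ultra-high-throughput screening hits for modulation of myocardial damage; cell death induced by hydrogen peroxide oxidative stress; compound pretreatment for 60 min then peroxide exposure for 2 h; potency is for protecting the cells against peroxide damage rather than for killing them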
[17] = target: T4, Fatty acid synthase (Homo sapiens, UniProt P49327); assay: inhibition of human FAS-TE enzyme activity – biochemical, endpoint fluorescence intensity, uHTS hits, dose response (AID 624327); type: functional;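 note: fluorescence from hydrolysis of an O-methyl fluorescein acyl ester substrate by the enzyme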
T4 sequence (P49327 whole entry): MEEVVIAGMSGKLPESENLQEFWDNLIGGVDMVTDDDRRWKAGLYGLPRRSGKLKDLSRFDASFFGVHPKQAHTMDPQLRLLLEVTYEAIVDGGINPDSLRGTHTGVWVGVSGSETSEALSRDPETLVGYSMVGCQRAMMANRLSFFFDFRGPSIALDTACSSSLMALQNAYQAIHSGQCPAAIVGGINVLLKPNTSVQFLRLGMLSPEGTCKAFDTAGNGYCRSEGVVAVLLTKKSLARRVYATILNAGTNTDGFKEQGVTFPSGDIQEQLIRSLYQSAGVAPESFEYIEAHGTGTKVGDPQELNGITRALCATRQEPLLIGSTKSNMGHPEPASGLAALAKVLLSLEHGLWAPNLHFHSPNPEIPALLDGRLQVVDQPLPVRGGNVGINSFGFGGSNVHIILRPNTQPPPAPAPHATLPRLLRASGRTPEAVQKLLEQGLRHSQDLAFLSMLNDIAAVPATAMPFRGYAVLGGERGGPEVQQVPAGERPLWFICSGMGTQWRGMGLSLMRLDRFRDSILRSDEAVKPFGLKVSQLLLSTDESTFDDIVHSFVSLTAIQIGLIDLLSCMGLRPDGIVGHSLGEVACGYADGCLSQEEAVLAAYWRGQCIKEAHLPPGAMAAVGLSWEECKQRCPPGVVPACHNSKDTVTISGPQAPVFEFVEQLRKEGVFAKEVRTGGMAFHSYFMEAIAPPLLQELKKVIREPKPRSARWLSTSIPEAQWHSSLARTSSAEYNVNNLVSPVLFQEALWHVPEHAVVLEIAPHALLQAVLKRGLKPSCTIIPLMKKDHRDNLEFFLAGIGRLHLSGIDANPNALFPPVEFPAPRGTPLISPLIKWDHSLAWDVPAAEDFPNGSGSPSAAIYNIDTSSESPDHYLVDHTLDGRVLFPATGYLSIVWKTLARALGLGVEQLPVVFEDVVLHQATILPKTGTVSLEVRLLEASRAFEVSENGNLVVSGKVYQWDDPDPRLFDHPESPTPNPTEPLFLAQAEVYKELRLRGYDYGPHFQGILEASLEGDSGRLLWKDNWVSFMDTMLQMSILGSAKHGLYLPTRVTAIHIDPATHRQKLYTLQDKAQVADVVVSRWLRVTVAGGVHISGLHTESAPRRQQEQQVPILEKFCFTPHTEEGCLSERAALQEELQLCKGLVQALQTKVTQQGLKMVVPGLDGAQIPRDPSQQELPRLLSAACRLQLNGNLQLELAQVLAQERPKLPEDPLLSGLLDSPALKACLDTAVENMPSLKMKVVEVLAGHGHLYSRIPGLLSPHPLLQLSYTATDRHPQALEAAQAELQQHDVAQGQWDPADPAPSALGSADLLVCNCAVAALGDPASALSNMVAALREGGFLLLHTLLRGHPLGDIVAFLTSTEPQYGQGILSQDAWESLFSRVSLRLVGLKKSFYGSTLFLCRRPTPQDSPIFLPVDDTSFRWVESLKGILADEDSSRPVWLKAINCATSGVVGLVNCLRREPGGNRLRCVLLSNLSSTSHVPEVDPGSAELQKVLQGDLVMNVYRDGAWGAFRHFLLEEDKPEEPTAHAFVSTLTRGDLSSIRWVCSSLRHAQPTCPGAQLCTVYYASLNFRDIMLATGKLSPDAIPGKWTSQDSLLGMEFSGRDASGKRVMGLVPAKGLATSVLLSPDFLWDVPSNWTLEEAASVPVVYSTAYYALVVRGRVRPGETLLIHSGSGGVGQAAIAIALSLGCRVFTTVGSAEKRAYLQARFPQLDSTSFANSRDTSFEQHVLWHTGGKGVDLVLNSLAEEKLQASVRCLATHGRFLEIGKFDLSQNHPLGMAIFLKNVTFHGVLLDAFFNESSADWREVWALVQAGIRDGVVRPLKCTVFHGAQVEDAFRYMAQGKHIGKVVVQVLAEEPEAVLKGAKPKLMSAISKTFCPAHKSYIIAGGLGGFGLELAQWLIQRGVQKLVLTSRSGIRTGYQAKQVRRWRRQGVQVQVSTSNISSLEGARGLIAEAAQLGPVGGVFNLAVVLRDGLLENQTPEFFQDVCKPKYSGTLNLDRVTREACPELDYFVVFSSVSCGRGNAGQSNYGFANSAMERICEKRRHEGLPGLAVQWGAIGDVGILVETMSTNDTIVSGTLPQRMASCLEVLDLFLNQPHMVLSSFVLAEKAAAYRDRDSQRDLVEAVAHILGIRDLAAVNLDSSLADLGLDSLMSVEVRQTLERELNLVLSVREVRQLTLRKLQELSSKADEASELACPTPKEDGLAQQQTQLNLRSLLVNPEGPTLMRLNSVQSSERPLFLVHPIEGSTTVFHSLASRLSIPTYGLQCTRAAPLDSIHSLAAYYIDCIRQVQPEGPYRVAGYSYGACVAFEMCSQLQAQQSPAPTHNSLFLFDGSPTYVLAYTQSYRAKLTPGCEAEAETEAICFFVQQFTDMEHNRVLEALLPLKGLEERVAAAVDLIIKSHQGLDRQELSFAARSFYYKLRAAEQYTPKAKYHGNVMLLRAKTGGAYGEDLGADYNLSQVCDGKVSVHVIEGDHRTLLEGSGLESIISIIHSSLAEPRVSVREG

[18] = target: T4, Fatty acid synthase; assay: inhibition of human FAS-TE enzyme activity – biochemical, kinetic fluorescence intensity, dose response (AID 624326); type: functional;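 note: rate of fluorescence rise from hydrolysis of a fluorogenic O-methyl fluorescein ester substrate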
[19] = test system: BJ; assay: cells; type: functional, cell-based, Homo sapiens; settings: bj
[20] = test system: P388/ADR; assay: cells; type: functional; settings: Mus musculus
[21] = test system: SN12K1; assay: cells; type: functional; settings: Homo sapiens, SN12K1
[22] = test system: P388; assay: cells; type: functional; settings: Mus musculus, P388

In the case of `COc1ccc(N2CCN(C(=O)c3cc4c(-c5cccc(OC)c5)nn(C)c4s3)CC2)cc1`, the IC50 [1] is reported as > 100 µM (inactive).
For `NC(=O)c1ccc(CSc2nc3ccccc3s2)cc1`, the AC50 [2] was 730 nM (active).
With `O=C(NCc1cccnc1)C1CCCN(Cc2cnn(-c3ccccc3)c2-n2cccc2)C1` (centres undefined) the EC50 [3] was 1.68 µM (active).
In the case of `CCN1CCN(c2ccc(S(=O)(=O)N3CCCCC3)cc2NC(=O)c2cccc(Cl)c2)CC1`, the EC50 [3] is reported as 3.76 µM (active).
In the case of `CCOC(=O)C(Oc1ccc2c(-c3ccc(OC)cc3)cc(=O)oc2c1C)c1ccccc1` (centres undefined), the IC50 [1] is reported as > 100 µM (inactive).
For `Cc1nc(Cc2nnc(SCC(=O)N3CCN(c4ccc(O)cc4)CC3)o2)cs1`, the IC50 [4] was 30 µM (active).
In the case of `Sc1nnc(-c2ccc3ccccc3n2)o1`, the AC50 [2] is reported as 10 nM (active).
For `COc1ccc(CNCCC(c2ccc(OC(C)C)cc2)c2ccccc2OC)cc1` (centres undefined), the EC50 [5] was 11.4 µM (active), the EC50 [6] was 113 µM (active) and the EC50 [7] was 8.9 µM (active). For the same molecule, the AC50 [8] was 5.81 µM (active), the AC50 [9] was 7.26 µM (active) and the AC50 [10] was 3.86 µM (active). The AC50 [11] was 13.3 µM (active) and the AC50 [12] was 20.9 µM (active).
In the case of `Fc1ccc(CSc2nnc(-c3cccs3)o2)cc1`, the IC50 [1] is reported as 27.3 µM (active).
For `COc1cccc(CN(C)C(=O)c2cccc(S(=O)(=O)N3CCN(Cc4ccccc4)CC3)c2)c1OC`, the AC50 [10] was 4.94 µM (active), the AC50 [11] was 63.3 µM (active) and the AC50 [12] was 8.32 µM (active).
For `COc1ccc(C(CNCC(O)COc2c(C)ccc(C)c2C)N(C)C)cc1` (centres undefined), the EC50 [3] was 1.19 µM (active).
In the case of `CSc1ccc(CN2CCC(C(=O)NCc3ccc(C)cc3)CC2)cc1`, the IC50 [4] is reported as 108 µM (active).
For `O=S(=O)(c1ccc2ccccc2c1)N1CCN=C1SCc1cccnc1`, the AC50 [2] was 72 nM (active).
For `CCOC(=O)c1ccc(CNC(=O)C2CCCCC2C(=O)OCC(F)(F)F)o1` (centres undefined), the AC50 [13] was 39.8 µM (inconclusive), the AC50 [14] was 25.1 µM (inconclusive) and the AC50 [15] was “inconclusive”.
In the case of `O=C(Nc1nc(-c2ccccn2)cs1)c1cccc(S(=O)(=O)N2CCOCC2)c1`, the IC50 [16] is reported as 21 µM (active), the AC50 [10] is reported as 1.52 µM (active) and the AC50 [11] is reported as 5.28 µM (active). For the same molecule, the AC50 [12] was 2.89 µM (active).
With `Cc1ccc(-c2nc(-c3ccncc3)no2)cc1` the IC50 [1] was 13.9 µM (active).
With `COc1cc(NC(=O)C(c2ccccc2)c2ccccc2)c(C(=O)O)cc1OC` the AC50 [2] was 10200 nM (active).
In the case of `Cc1ccccc1OCCn1c(S)nc2c(N)ncnc21`, the IC50 [4] is reported as 41.6 µM (active).
For `c1ccc(CNc2ccc3c(c2)ncn3C2CCCCC2)nc1`, the AC50 [2] was 1200 nM (active).
With `Cc1cc(N(CCCl)CCCl)ccc1C=Cc1ccncn1` the IC50 [1] was > 100 µM (inactive).
In the case of `c1ccc2sc(N3CCNCC3)nc2c1`, the EC50 [3] is reported as 0.473 µM (active).
With `CC(C)Oc1ccc(S(=O)(=O)N2CCCCC2)cc1NC(=O)CN1CCCC1c1cccs1` (centres undefined) the AC50 [9] was 5.76 µM (active), the AC50 [10] was 7.88 µM (active) and the AC50 [11] was > 70 µM (inactive). For the same molecule, the AC50 [12] was 20.6 µM (active).
For `COc1cc(/C=C/C(=O)OCC(=O)Nc2ccc3c(c2)OCO3)ccc1O`, the IC50 [4] was 48.2 µM (active).
With `COc1ccccc1-c1nnc(-c2ccc(F)cc2)o1` the IC50 [1] was 90.4 µM (inactive).
In the case of `COc1ccc(C(CNC(=O)c2ccc3c(c2)OCCO3)N(C)C)cc1` (centres undefined), the EC50 [3] is reported as 0.237 µM (active).
In the case of `Cc1ccc(CNC(=O)CN2C(=O)COc3ccc(C)cc32)cc1`, the AC50 [14] is reported as 28.2 µM (inconclusive) and the AC50 [15] is reported as “inconclusive”.
With `Cc1ccc(CNc2nc(NCC3CC3)nc3ccsc23)c(C)c1` the AC50 [10] was 3.95 µM (active), the AC50 [11] was 40.4 µM (active) and the AC50 [12] was 6.26 µM (active).
With `Cc1nn(-c2ccccc2)c(C)c1-c1cc(C(=O)N/N=C/c2ccc(O)cc2)[nH]n1` the AC50 [2] was 4120 nM (active).
For `Cc1ccc(S(=O)(=O)N2C[C@H]3[C@H]4C(=O)N(c5ccccc5)C(=O)[C@H]4CC(=O)[C@H]3[C@@H]2c2cccc3ccccc23)cc1`, the IC50 [1] was > 100 µM (inactive), the IC50 [17] was 21.6 µM (inactive) and the IC50 [18] was 15.6 µM (active).
In the case of `COc1cccc(/C=N/n2c(=S)n(C)c3cc(C)c(C)cc32)c1OC`, the AC50 [15] is reported as “inconclusive”.
For `COc1cc2c(c(OC)c1OC)-c1ccc(=O)c(O)cc1C(NC(C)=O)CC2` (centres undefined), the EC50 [19] was 126 nM (inconclusive).
With `CC(C)[C@](O)(C(=O)OCC1=CC[N+]2([O-])CC[C@@H](O)[C@@H]12)[C@H](C)O` (some centres undefined) [INDICINE N-OXIDE] the GI50 [20] was > 8.99 mM (inactive), the GI50 [21] was > 10 mM (inactive) and the GI50 [22] was 6.49 mM (inactive).
For `COc1cc(O)c(Cc2ccccc2O)c(O)c1C(=O)CCc1ccccc1` [UVARETIN], the GI50 [20] was 0.00538 mM (inactive), the GI50 [21] was 0.00555 mM (inactive) and the GI50 [22] was 0.00437 mM (inactive).
